Measured values reported in patent US20160319277A1, “METHODS OF IMPROVED PROTEIN PRODUCTION USING MIRNAs AND SIRNAs” (THE JOHNS HOPKINS UNIVERSITY, priority 2015, published 2016).

Columns and labels:
[1] = tested on: HEK-GPC3-hFc cell line; assay: Validation of miRNAs with GPC3-hFc-expressing cells (ELISA and cell count); type: cell-based, human; conditions: 40 nM miRNA, 6 days after transfection, versus siN.C.
Protocol: HEK-GPC3-hFc cell line constitutively secreting glypican-3 hFc-fusion protein (GPC3-hFc) was a gift from the National Cancer Institute of the NIH. Cells were grown in DMEM supplemented with 10% FBS in a humidified incubator set at 37° C. and 5% CO2.
Cells were transfected in 12-well plates as described above in the screening method with the following modification: 0.15 million cells were transfected with 40 nM miRNA using 6.25 ul Lipofectamine™ RNAiMax in a total volume of 1 mL of media. 6 days after transfection, cell culture supernatant was collected and cleared using centrifuge for GPC3-hFc concentration determination with ELISA and cells were detached and counted by trypan blue exclusion using a CEDEX™ cell quantification system (Roche, Mannheim, Germany). Per cell GPC3-hFc production can be calculated from overall GPC3-hFc yield and viable cell number.
AffiniPure™ F(ab′)2 Fragment Goat Anti-Human IgG (min X Bov, Ms, Rb Sr Prot, Cat. 109-006-170, Jackson Immunology) was used to coat a 96-well plate at 5 μg/mL in PBS buffer, 50 μL per well, at 4° C. overnight. After the plate was blocked with 2% BSA in PBS buffer, pre-diluted cell culture supernatant was added, and the plate was incubated at room temperature for one hour to allow binding to occur. After the plate was washed twice with PBS containing 0.05% Tween 20, Peroxidase-conjugated AffiniPure™ Goat-anti-uman IgG (Cat. 109-035-098, Jackson Immunology) was added at 1:4000 dilutions, 50 ul/well. Following incubating at room temperature for one hour, the plate was washed 4 times and detected with Peroxidase Substrate System (KPL).

[2] = tested on: T-REx-293-NTSR1-GFP cells; assay: High-throughput human miRNA mimic library screen, image-based per cell green fluorescence (NTSR1-GFP expression); conditions: per cell green fluorescence intensity; for MAD-based z-score: 72 h after transfection plus 24 h tetracycline induction
Protocol: T-REx-293-NTSR1-GFP cells were screened with a miRNA mimic library (Qiagen) based on Sanger miRBase™ 13.0 and consisting of 875 miRNAs mimics. For transfection, 0.8 pmol of each mimic was spotted to 384 well plate wells (Corning) and 20 μL of serum-free DMEM containing 0.1 μL of Lipofectamine™ RNAiMax (Life Technologies) was then added to each well. This lipid-miRNA mixture was incubated at ambient temperature for 30 min prior to adding 2000 cells in 20 μL of DMEM containing 20% certified FBS (Gibco). Transfected cells were incubated at 37° C. in 5% CO2 for 72 hours and induced with 1 μg/mL tetracycline for 24 hours for NTSR1-GFP expression. Cells were then fixed with 2% paraformaldehyde (Electron Microscopy Sciences), stained with Hoechst™ 33342 (Life Technologies) for 45 minutes and gently washed with PBS. Plates were imaged with an ImageXpress Micro XL™ (Molecular Devices). Total cell number and per cell green fluorescence intensity were calculated using MetaXpress™ software (Molecular Devices) employing the Multi-Wavelength Cell Scoring™ application module. […] A full column of positive control siRNA targeting GFP (GFP-22 siRNA, Qiagen) was also used as on-plate reference for transfection efficiency. The median absolute deviation (MAD)-based z-score was calculated for each sample.

[3] = tested on: CMV-Luc2-HygroHEK293 cell line; assay: Validation of miRNAs with luciferase-expressing cells (ONE-Glo / CellTiter-Glo, 12-well); type: cell-based, human; conditions: 40 nM miRNA, 72 h; for improvement of luciferase expression (per cell luciferase activity): 12-well, versus siN.C.
Protocol: CMV-Luc2-HygroHEK293 cell line constitutively expressing luciferase is purchased from Promega. Validation transfections were performed in 12-well plates with miScript miRNA mimics (Qiagen, Cat. No. 219600-S0), SilencerSelect™ Negative Control #2 and lethal control siRNA (Qiagen AllStars Cell Death Control™) served as a control for transfection efficiency. Cells were transfected in duplicates as described above in the screening method with the following modification: 0.1 million cells were transfected with 40 nM miRNA using 6.25 ul Lipofectamine™ RNAiMax in a total volume of 1 mL of media. 72 hours after transfection, 500 μL of ONE-Glo™ Reagent (Promega) was added to one set of replicates for luciferase activity quantification and 500 μL of CellTiter-Glo™ Reagent (Promega) was added to the second set of replicates for viable cell density measurement. All plates were incubated at room temperature for 20 minutes to stabilize luminescent signal and then measured with SpectraMax i3™ plate reader (Molecular Devices). Per cell luciferase production was calculated from overall luciferase activity and viable cell number.

[4] = tested on: NTSR1; assay: [3H]NT binding assay on detergent-solubilized cells for functional expression of NTSR1; type: cell-based; conditions: for improvement of functional expression of NTSR1 compared with siN.C.: [3H]NT binding
Protocol: Validation transfections were performed in 12-well plates with miScript™ miRNA mimics (Qiagen, Cat. No. 219600-S0), SilencerSelect™ Negative Control #2 and lethal control siRNA (Qiagen AllStars Cell Death Control™) served as a control for transfection efficiency. Cells were transfected as described for screening except 0.15 million cells were transfected with 40 nM miRNA using 6.25 ul Lipofectamine™ RNAiMax in a total volume of 1 mL of media. 72 hours after transfection, cells were induced with 1 μg/mL tetracycline. 24 hours later, cells from each well were detached with non-enzymatic cell dissociation buffer (Gibco, Cat. No. 13150-016) and washed twice with cold PBS. Cell densities and viability were determined by trypan blue exclusion using a CEDEX™ cell quantification system (Roche, Mannheim, Germany). Based on the counts, cell densities were adjusted to 0.5 million cells/ml with PBS and then subject to flow cytometry analysis. The remaining cells were pelleted and frozen on dry ice for [^3H]NT binding assays.
The detergents n-Dodecyl-β-D-maltoside (LM), 3-[(3-cholamidopyropyl) dimethylammonio]-1-propane sulfonate (CHAPS) and cholesteryl hemisuccinate Tris salt (CHS) were obtained from Anatrace. Cell pellets from 2 mL of suspension culture were suspended in Tris-glycerol-NaCl buffer. Then the detergents LM, CHAPS and CHS were added to give a final buffer composition of 50 mM TrisHCl pH 7.4, 200 mM NaCl, 30% (v/v) glycerol, 1% (w/v) LM, and 0.6% (w/v) CHAPS and 0.12% (w/v) CHS in a total volume of 0.5 mL. The samples were placed on a rotating mixer at 4° C. for 1 hour. Cell debris and non-solubilized material were removed by ultracentrifugation (TL100 rotor, 60 k rpm, 4° C., 30 min in Optima Max™ bench-top ultracentrifuge, Beckman), and the supernatants containing detergent-solubilized NTSR1 were used to determine the total number of expressed receptors by a detergent-based radio-ligand binding assay (see below).
Tritiated neurotensin agonist [^3H]NT ([3,11-tyrosyl-3,5-^3H(N)]-pyro[…] SEQ ID NO:27) was purchased from Perkin Elmer. Ligand-binding assays with detergent-solubilized receptors were carried out in TEBB assay buffer (50 mM Tris pH 7.4, 1 mM EDTA, 40 μg/mL bacitracin, 0.1% BSA) containing 0.1% (w/v) LM, 0.2% (w/v) CHAPS and 0.04% (w/v) CHS. For one-point assays, receptors were incubated with 2 nM [^3H]NT on ice for 1 hour in a volume of 150 μL. The concentration of [^3H]NT used was at least 5-fold above the apparent dissociation constants for detergent-solubilized NTSR1 to allow high receptor occupancy. Separation of the receptor-ligand complex from free ligand (100 μL) was achieved by centrifugation-assisted gel filtration using Bio-Spin™ 30 Tris columns (BioRad), equilibrated with RDB buffer (50 mM Tris-HCl, pH 7.4, 1 mM EDTA, 0.1% (w/v) LM, 0.2% (w/v) CHAPS, 0.04% (w/v) CHS). Non-specific [^3H]NT binding of 220 dpm was subtracted from total binding to calculate the total amount of receptors in T-REx-293-NTSR1-GFP cells. The number of functional NTSR1 was estimated by specific [^3H]NT binding assuming one ligand-binding site per receptor molecule. The number of cells in the assay was derived by cell counting at cell harvest. This approach led to the calculation of the parameter “receptors/cell”.

[5] = tested on: HEK-CMV-Luc2-Hygro cells; assay: Effect of exogenous polyamines on luciferase expression and cell growth; conditions: for effect of higher concentrations on luciferase expression and viable cell: concentrations above the optimum; for concentration with inhibitory effects: culture medium with ruminant serum
Protocol: FIG. 13: Effect of exogenous polyamines on luciferase expression and cell growth. Two different passages of cells were treated with the indicated concentrations of polyamines and each biological sample was measured in triplicates. Error bars represent SEM.
To further verify this, the impacts of exogenously added polyamines on luciferase expression level and viable cell number were determined.

| Compound | Signal relative to negative control (%) [2] [%] | MAD-based z-score [2] | improvement of functional expression of NTSR1 compared with siN.C. [4] | other results |
| --- | --- | --- | --- | --- |
| UUGGGGAAACGGCCGCUGAGUG [miR-2110] | 160 | 2.3 | – | improvement of per cell GPC3-hFc secretion [1]: enhanced per cell GPC3-hFc secretion; improvement of luciferase expression (per cell luciferase activity) [3]: relevant for improving luciferase expression; functional neurotensin receptor molecules per cell ([4]; specific [3H]NT binding, 2 nM): 13.8 million functional neurotensin receptor molecules per cell |
| NCCCNCCCCNCCCN [spermine] | – | – | – | increase in luciferase expression ([5]; at 10 μM): 16%; effect of higher concentrations on luciferase expression and viable cell [5]: caused reduction in both luciferase expression and viable cell; concentration with inhibitory effects [5]: > 20 µM |
| ACCUGGCAUACAAUGUAGAUUU (listed as RNA, chemistry not given here; listed as Homo sapiens) [miR-221-5p, human miRNA mimic] | 248 | 5.3 | not associated with enhanced binding activity | – |
| CACUGGCUCCUUUCUGGGUAGA (listed as RNA, chemistry not given here; listed as Homo sapiens) [miR-892b, human miRNA mimic] | 201 | 3.7 | not associated with enhanced binding activity | cell growth (viable cell density) [3]: inhibited cell growth; overall production of luciferase higher than negative control siN.C. [3]: 188%; improvement of luciferase expression (per cell luciferase activity) [3]: 239% |
| AAGCUGCCAGUUGAAGAACUGU (listed as RNA, chemistry not given here; listed as Homo sapiens) [miR-22-3p, human miRNA mimic] | 158 | 2.3 | – | change of overall GPC3-hFc production [1]: effectively enhanced overall GPC3-hFc; improvement of per cell GPC3-hFc secretion [1]: enhanced per cell GPC3-hFc secretion; cell growth (viable cell density) [3]: inhibited cell growth; overall production of luciferase higher than negative control siN.C. [3]: 127% |
| CUUUUUGCGGUCUGGGCUUGC (listed as RNA, chemistry not given here; listed as Homo sapiens) [miR-129-5p, human miRNA mimic] | 172 | 2.7 | not associated with enhanced binding activity | – |
| CUGCCAAUUCCAUAGGUCACAG (listed as RNA, chemistry not given here; listed as Homo sapiens) [miR-192-3p, human miRNA mimic] | 148 | 2.0 | – | – |
| NCCCCNCCCN [spermidine] | – | – | – | increase in cell growth ([5]; at 10 μM): 24%; increase in luciferase expression ([5]; at 20 μM): 36%; concentration with inhibitory effects [5]: > 100 µM |
| ACAGAUUCGAUUCUAGGGGAAU (listed as RNA, chemistry not given here; listed as Homo sapiens) [miR-10b-3p, human miRNA mimic] | 162 | 2.4 | – | – |
| AUCGCUGCGGUUGCGAGCGCUGU (listed as RNA, chemistry not given here; listed as Homo sapiens) [miR-639, human miRNA mimic] | 165 | 2.4 | not associated with enhanced binding activity | – |
| NCCCCN [putrescine] | – | – | – | increase of luciferase expression ([5]; added to medium at 100 μM): up to 40%; enhanced growth ([5]; addition at 50 μM): 10%; effect of higher concentrations on luciferase expression and viable cell [5]: did not lead to further enhancement of luciferase production |
| AGGAGGCAGCGCUCUCAGGAC [miR-650] | 163 | 2.5 | – | – |
| AGUUCUUCAGUGGCAAGCUUUA (listed as RNA, chemistry not given here; listed as Homo sapiens) [miR-22-5p, human miRNA mimic] | 215 | 4.0 | – | change of overall GPC3-hFc production [1]: effectively enhanced overall GPC3-hFc; improvement of per cell GPC3-hFc secretion [1]: enhanced per cell GPC3-hFc secretion; improvement of luciferase expression (per cell luciferase activity) [3]: relevant for improving luciferase expression |
